According to publication PMC4728560 (Scientific Reports, 2016):

How the values were obtained:
[1] = tested on: Bcl-xL inhibition of cBid/Bax; assay: In vitro reconstitution liposome permeabilization, cBid/Bax with Bcl-xL; type: biochemical; settings: ANTS/DPX liposomes, 100 nM Bax, 20 nM cBid, pre-incubation pH 9, 45 min, 37 °C, 5 h, pH 7
Source text: This purified assay system measures direct interactions in which full-length untagged Bcl-xL inhibits permeabilization by binding full-length caspase 8 cleaved Bid (cBid) and/or full-length untagged Bax, thereby preventing Bax oligomerization in membranes. […] In these assays liposome permeabilization by activated Bax releases the entrapped fluorophore/quencher pair 8-aminonaphthalene-1,3,6-trisulfonic acid (ANTS)/p-xylene-bispyridinium (DPX), resulting in a measurable increase of fluorescence.
(A–E) in vitro reconstitution assay on liposome permeabilization. […] The treated Bcl-xL was then added to reactions containing ANTS-DPX liposomes, 100 nM Bax and 20 nM of either cBid (A,B) or cBidmt1(C,D) at pH 7. Liposome permeabilization was quantified by fluorescence after 5h incubation at 37 °C where 100% release was defined as the fluorescence change due to lipid solubilization with 1% Triton X-100. […] Error bars, std. dev. n = 3. […] Cyto c extra-mito: in the supernatant, analysed by Western blot. […]
(§1) Figure 10 A,B) or cBid mt1 (Supplementary Figure 10 C,D) at pH 7 to quantify the activity of Bcl-xL inhibition of liposome permeablization. […]
then added to reactions containing ANTS-DPX liposomes, 100nM Bax and 20nM of either c Bid (A, C) or cBid mt1(B, D) at pH 7 and liposome permeabilization was quantified by fluorescence […]

cBidmt1+Bax = assay: Control liposome permeabilization without Bcl-xL, cBidmt1+Bax; type: biochemical; settings: 320 nM pH9 treated TCTP, 100 nM Bax, 20 nM cBidmt1
Description: (A–E) in vitro reconstitution assay on liposome permeabilization. […] The treated Bcl-xL was then added to reactions containing ANTS-DPX liposomes, 100 nM Bax and 20 nM of either cBid (A,B) or cBidmt1(C,D) at pH 7. Liposome permeabilization was quantified by fluorescence after 5h incubation at 37 °C where 100% release was defined as the fluorescence change due to lipid solubilization with 1% Triton X-100. […] Error bars, std. dev. n = 3. To compare between the TCTP treated groups and the Control group statistically, two-way ANOVA test was performed for (A–D) and one-way ANOVA test was performed for (E). […] Colored asterisks above each data point indicate the statistical significance (*p < 0.05; **p < 0.01, no asterisks if p ≥ 0.05). A complete statistical analysis is provided in Supplementary Table 2–4. (F) Permeabilization assays of mitochondrial membrane by tBid and Bax assessing cytochrome c release. […] Cyto c extra-mito: in the supernatant, analysed by Western blot. […]
as §1
the Control group (No TCTP) were analyzed through Dunnett's multiple comparisons test at each sample condition (Bcl-XL concentration) for statistical significance. […]
Statistical significance was analyzed through Dunnett's multiple comparisons test. […]

Substance: TCTP: Translationally Controlled Tumor Protein (TCTP/tpt1), recombinant full-length
- effect on Bcl-xL inhibition of cBid/Bax-mediated liposome permeabilization [1]: enhanced Bcl-xL inhibition
- effect on cBidmt1-Bax induced permeabilization not containing Bcl-xL (cBidmt1+Bax): no effect
